Results: patent publication US4617184A, “99m Tc-1,2-dihydroxy-1,2-bis(dihydroxyphosphinyl)ethane complex for skeleton scanning” (priority 1984, dated 1986)

Tests used:
[1] = Acute and chronic toxicity of DHPE in rodents; assay type: in vivo; details: injected doses 5 to 250 mg per kg of body weight
From the text: The amount of complexing agent required to be injected into a test animal or human patient for a satisfactory skeleton scintigraphy is three orders of magnitude smaller than the highest tested dose.

[2] = Organ distribution of ^99m Tc-DHPE (freeze dried kit) in rats, i.v. tail vein; assay type: in vivo, Hooded strain rats; set-up: Dose per Organ: unit not given here
Experimental: Twenty five milliliters of a sterile aqueous solution of 55.5 mg of DHPE were mixed with 12.5 mL of a freshly prepared sterile aqueous solution containing 0.1 mg of SnCl2 per milliliter and with 12.5 mL of a sterile aqueous solution of sodium acetate 10% W/V. Portions of 2 mL each of the resulting solution were transferred through a Millipore filter of 0.22 micron pore size into pharmaceutical vials. The vials were freeze dried for 24 hours and were sealed in vacuum. Four milliliters of saline solution of Na^+99m TcO4^- (20 millicuries Tc-99m) were added to each vial. The vial was vigorously shaken, and then allowed to stand for five minutes at normal ambient temperature.
Two hundred fifty microliters of the above solution of the radiopharmaceutical ^99m Tc-DHPE were injected i.v. (intravenously) in the tail vein of each of six Hooded strain, closed colony, random breeding rats. The rats were sacrificed at the following time periods 1 hr, 2 hr, 4 hr, 6 hr, 12 hr, and 24 hrs. The organs of each rat were isolated and the distribution of Tc-99m determined by assay with a single channel analyzer equipped with a well type NaI(T1) scintillation detector.
The experimental error in the distribution vs. time data for the ^99m Tc-DHPE complex was minimized by averaging six runs under identical conditions, always with the Hooded strain rats. The effect of organ geometry on radioactivity counting efficiency was taken into account. Corrections were also made so that, upon extrapolation back to time zero, the summation of activity in the organs was equal to the injected activity (i.e. by comparison to standards).

[3] = Gamma camera bone imaging in anesthetized rabbit; assay type: in vivo
Experimental: Two milliliters of a sterile saline solution of Na^+99m TcO4^- (IO millicuries Tc-99m) were added to a pharmaceutical vial containing 2 mL of a sterile aqueous solution containing 2.2 mg of DHPE, 50μg of SnCl2 and 50 mg of CH3 COONa. The vial was vigorously shaken, then allowed to stand for five minutes at room temperature. Paper chromatography of the solution was run according to the method outlined in Example 1 and only 2% unreacted pertechnetate was found.
Bone imaging was carried out by intravenous injection of 0.5 milliliters of this solution into the ear vein of an anesthetized rabbit positioned under a gamma camera. […] As time passed the quality of the images improved. […] Less than 30% of the initial radioactivity in the blood was detected in the blood 30 minutes after injection.

[4] = Distribution in rats of the complex prepared by electrochemical reduction; assay type: in vivo, Hooded strain rats; details: i.v. tail vein, electrochemically prepared complex
Experimental: Four milliliters of a sterile aqueous solution containing 1.5 mg of DHPE, 20 mg of CH3 COONa and 10 mCi of Na^+99m TcO4^- were added to a sterile cell equipped with tin electrodes. An electrical charge of 5×10^-2 coulombs (20 sec×2.5 mA) was passed through to produce the ^99m Tc-DHPE complex. Paper chromatography of the solution was run according to the method outlined in Example 1. The determined radiochemical purity of the ^99m Tc-DHPE compound was 98%. The complex was assayed by intravenous injections into the tail veins of Hooded strain rats as in Example 1, the animals being sacrificed at 1, 2, 4, 6, 12, and 24 hours.

For `O=P(O)(O)C(O)C(O)P(=O)(O)O` (centres unmarked) [DHPE, 1,2-dihydroxy-1,2-bis(dihydroxyphosphinyl)ethane], the “deaths or adverse effects (acute and chronic toxicity)” value [1] was “no deaths or adverse effects”.

In the case of “^99m Tc-1,2-Dihydroxy-1,2-bis(dihydroxyphosphinyl)ethane Complex [^99m Tc-DHPE]”, the “Dose per Organ” value ([2]; ADRENALS, 1 hr) was 0.006 ± 0.006, the “Dose per Organ” value ([2]; ADRENALS, 2 hr) was 0.007 ± 0.005 and the “Dose per Organ” value ([2]; ADRENALS, 4 hr) was 0.003 ± 0.001. For the same molecule, the “Dose per Organ” value ([2]; ADRENALS, 6 hr) was 0.003 ± 0.001, the “Dose per Organ” value ([2]; ADRENALS, 12 hr) was 0.001 ± 0.000 and the “Dose per Organ” value ([2]; ADRENALS, 24 hr) was 0.001 ± 0.000. The “Dose per Organ” value ([2]; BLOOD, 1 hr) was 0.742 ± 0.384, the “Dose per Organ” value ([2]; BLOOD, 2 hr) was 0.895 ± 0.515 and the “Dose per Organ” value ([2]; BLOOD, 4 hr) was 0.643 ± 0.414. For the same molecule, the “Dose per Organ” value ([2]; BLOOD, 6 hr) was 0.322 ± 0.067, the “Dose per Organ” value ([2]; BLOOD, 12 hr) was 0.312 ± 0.209 and the “Dose per Organ” value ([2]; BLOOD, 24 hr) was 0.104 ± 0.015. The “Dose per Organ” value ([2]; BONE, 1 hr) was 44.426 ± 2.556, the “Dose per Organ” value ([2]; BONE, 2 hr) was 45.722 ± 3.411 and the “Dose per Organ” value ([2]; BONE, 4 hr) was 53.447 ± 2.828. For the same molecule, the “Dose per Organ” value ([2]; BONE, 6 hr) was 47.673 ± 6.612, the “Dose per Organ” value ([2]; BONE, 12 hr) was 42.362 ± 4.449 and the “Dose per Organ” value ([2]; BONE, 24 hr) was 43.317 ± 2.825. The “Dose per Organ” value ([2]; FECES, 1 hr) was 0.034 ± 0.054, the “Dose per Organ” value ([2]; FECES, 2 hr) was 0.053 ± 0.088 and the “Dose per Organ” value ([2]; FECES, 4 hr) was 0.394 ± 0.343. For the same molecule, the “Dose per Organ” value ([2]; FECES, 6 hr) was 0.570 ± 0.205, the “Dose per Organ” value ([2]; FECES, 12 hr) was 0.848 ± 0.601 and the “Dose per Organ” value ([2]; FECES, 24 hr) was 3.149 ± 1.799. For the same molecule, the “Dose per Organ” value ([2]; HEART, 1 hr) was 0.022 ± 0.008, the “Dose per Organ” value ([2]; HEART, 2 hr) was 0.026 ± 0.012 and the “Dose per Organ” value ([2]; HEART, 4 hr) was 0.018 ± 0.008. For the same molecule, the “Dose per Organ” value ([2]; HEART, 6 hr) was 0.015 ± 0.004, the “Dose per Organ” value ([2]; HEART, 12 hr) was 0.011 ± 0.005 and the “Dose per Organ” value ([2]; HEART, 24 hr) was 0.006 ± 0.001. For the same molecule, the “Dose per Organ” value ([2]; KIDNEYS, 1 hr) was 1.523 ± 0.371, the “Dose per Organ” value ([2]; KIDNEYS, 2 hr) was 1.782 ± 0.365 and the “Dose per Organ” value ([2]; KIDNEYS, 4 hr) was 1.441 ± 0.277. For the same molecule, the “Dose per Organ” value ([2]; KIDNEYS, 6 hr) was 2.716 ± 0.365, the “Dose per Organ” value ([2]; KIDNEYS, 12 hr) was 3.018 ± 0.825 and the “Dose per Organ” value ([2]; KIDNEYS, 24 hr) was 1.187 ± 0.119. For the same molecule, the “Dose per Organ” value ([2]; LARGE INTESTINE, 1 hr) was 1.548 ± 1.380, the “Dose per Organ” value ([2]; LARGE INTESTINE, 2 hr) was 2.210 ± 1.789 and the “Dose per Organ” value ([2]; LARGE INTESTINE, 4 hr) was 2.906 ± 3.009. For the same molecule, the “Dose per Organ” value ([2]; LARGE INTESTINE, 6 hr) was 3.209 ± 0.684, the “Dose per Organ” value ([2]; LARGE INTESTINE, 12 hr) was 0.648 ± 0.615 and the “Dose per Organ” value ([2]; LARGE INTESTINE, 24 hr) was 0.415 ± 0.448. For the same molecule, the “Dose per Organ” value ([2]; LIVER, 1 hr) was 0.095 ± 0.018, the “Dose per Organ” value ([2]; LIVER, 2 hr) was 0.184 ± 0.049 and the “Dose per Organ” value ([2]; LIVER, 4 hr) was 0.187 ± 0.032. For the same molecule, the “Dose per Organ” value ([2]; LIVER, 6 hr) was 0.168 ± 0.044, the “Dose per Organ” value ([2]; LIVER, 12 hr) was 0.131 ± 0.022 and the “Dose per Organ” value ([2]; LIVER, 24 hr) was 0.134 ± 0.030. The “Dose per Organ” value ([2]; LUNGS, 1 hr) was 0.104 ± 0.033, the “Dose per Organ” value ([2]; LUNGS, 2 hr) was 0.149 ± 0.105 and the “Dose per Organ” value ([2]; LUNGS, 4 hr) was 0.121 ± 0.029. For the same molecule, the “Dose per Organ” value ([2]; LUNGS, 6 hr) was 0.032 ± 0.007, the “Dose per Organ” value ([2]; LUNGS, 12 hr) was 0.022 ± 0.015 and the “Dose per Organ” value ([2]; LUNGS, 24 hr) was 0.044 ± 0.024. The “Dose per Organ” value ([2]; MUSCLE, 1 hr) was 1.138 ± 0.511, the “Dose per Organ” value ([2]; MUSCLE, 2 hr) was 2.371 ± 1.206 and the “Dose per Organ” value ([2]; MUSCLE, 4 hr) was 2.193 ± 0.974. The “Dose per Organ” value ([2]; MUSCLE, 6 hr) was 4.216 ± 2.815, the “Dose per Organ” value ([2]; MUSCLE, 12 hr) was 2.139 ± 0.389 and the “Dose per Organ” value ([2]; MUSCLE, 24 hr) was 2.699 ± 1.989. For the same molecule, the “Dose per Organ” value ([2]; SMALL INTESTINE, 1 hr) was 0.963 ± 0.868, the “Dose per Organ” value ([2]; SMALL INTESTINE, 2 hr) was 1.963 ± 2.085 and the “Dose per Organ” value ([2]; SMALL INTESTINE, 4 hr) was 1.009 ± 1.243. For the same molecule, the “Dose per Organ” value ([2]; SMALL INTESTINE, 6 hr) was 0.495 ± 0.205, the “Dose per Organ” value ([2]; SMALL INTESTINE, 12 hr) was 0.318 ± 0.113 and the “Dose per Organ” value ([2]; SMALL INTESTINE, 24 hr) was 0.091 ± 0.033. For the same molecule, the “Dose per Organ” value ([2]; SPLEEN, 1 hr) was 0.020 ± 0.007, the “Dose per Organ” value ([2]; SPLEEN, 2 hr) was 0.026 ± 0.007 and the “Dose per Organ” value ([2]; SPLEEN, 4 hr) was 0.020 ± 0.003. For the same molecule, the “Dose per Organ” value ([2]; SPLEEN, 6 hr) was 0.022 ± 0.007, the “Dose per Organ” value ([2]; SPLEEN, 12 hr) was 0.008 ± 0.002 and the “Dose per Organ” value ([2]; SPLEEN, 24 hr) was 0.010 ± 0.004. For the same molecule, the “Dose per Organ” value ([2]; STOMACH, 1 hr) was 0.288 ± 0.137, the “Dose per Organ” value ([2]; STOMACH, 2 hr) was 0.388 ± 0.176 and the “Dose per Organ” value ([2]; STOMACH, 4 hr) was 0.226 ± 0.243. The “Dose per Organ” value ([2]; STOMACH, 6 hr) was 0.152 ± 0.148, the “Dose per Organ” value ([2]; STOMACH, 12 hr) was 0.082 ± 0.023 and the “Dose per Organ” value ([2]; STOMACH, 24 hr) was 0.040 ± 0.029. The “Dose per Organ” value ([2]; URINE, 1 hr) was 28.584 ± 5.562, the “Dose per Organ” value ([2]; URINE, 2 hr) was 28.295 ± 1.829 and the “Dose per Organ” value ([2]; URINE, 4 hr) was 31.469 ± 4.991. For the same molecule, the “Dose per Organ” value ([2]; URINE, 6 hr) was 24.033 ± 5.995, the “Dose per Organ” value ([2]; URINE, 12 hr) was 6.519 and the “Dose per Organ” value ([2]; URINE, 24 hr) was 8.600. The excretion ([2]; rats, i.v.) was “mainly via the kidneys to urine”, the “removal from the blood” value ([2]; rats, i.v.) was “fast removal” and the “concentration to the skeleton” value ([2]; rats, i.v., in comparison to other organs or tissues) was “fast and high concentration to the skeleton”. The “initial radioactivity in the blood detected in the blood” value ([3]; 30 minutes after injection) was “Less than 30%”, the “removal of the radiopharmaceutical from the blood” value ([3]; i.v. ear vein) was “fast removal” and the “quality of skeleton images” value ([3]; i.v. ear vein, 1 to 2.5 hrs post injection) was “Excellent images of the skeleton”. The skeleton visualization ([3]; i.v. ear vein, thirty minutes post injection) was “clearly visualized”, the excretion [4] was “mainly to the urine” and the skeleton uptake [4] was “rapid skeleton uptake”. For the same molecule, the “uptake by other organs” value ([4]; effect on bone specificity) was “did not detract significantly from bone specificity”.
